In US20110143958A1, “Methods of Identifying Modulators of Ubiquitin Ligases” (priority 2008, published 2011):

Tested on: E3 ubiquitylation reaction (E1, E2, and E3)
Assay: E3 ligase assay using 5′-IAF-UBA1, inhibition assays
Format: biochemical, human
Conditions: E1, E2, and E3 pre-incubated with various concentrations for 30 minutes at room temperature; detection with 5′-IAF-UBA1 and immunoblot; FIGS. 9A-D
Method: E3 ligase reactions contained 10 nM GST-Praja1, 500 nM 6× His-SUMO-CARP2 or 500 nM 6× His-SUMO-MuRF1 as E3s, 50 nM E1, 150 nM UbcH5c (E2), 500 ng Ubiquitin, 2 mM ATP, 50 mM Tris-HCl pH8.0, 5 mM MgCl2, 0.1 mM DTT. For measuring SCF^Atrogin-1 E3 ligase activity, the reaction was assembled essentially as described above except that the E3 ligase contained 6× His-SUMO-Atrogin-1, Cullin-1 (“Cul1”), Roc-1 (“Rbx-1”) and 6× His-Skp1 (250 nM each). In order to obtain large amounts of the Cul1-Rbx1 complex for the SCF complex, we used a procedure to overexpress the Cul1-Rbx1 complex in E. coli. Zheng, et al., Nature, 416(6882):703-9 (2002). The Cul1 gene was split into two halves (residues 1-410 and residues 411-776) and co-expressed with GST-tagged Rbx1 as three different polypeptide chains. A PCR product encoding Skp1 was generated using the primers 5′-[…]-3′ (SEQ ID NO:28) and 5′-[…]-3′ (SEQ ID NO:29) and human Skp1 cDNA as the template. […]
For inhibition assays, reactions containing E1, E2, and E3 were pre-incubated with various concentrations of NEM and ubistatin A for 30 minutes at room temperature before initiating the reaction by adding ubiquitin and ATP. […] The wells were washed with 1× PBS and readings were taken using a fluorescence plate reader with excitation and emission wavelengths of 485 nm and 535 nm, respectively. […]

## CCN1C(=O)C=CC1=O [NEM]
  inhibition of the E3 ubiquitylation assay: inhibited

## O=C(Nc1ccc(/C=C/c2ccc(NC(=O)c3cc(S(=O)(=O)O)c4cccnc4c3O)cc2S(=O)(=O)O)c(S(=O)(=O)O)c1)c1cc(S(=O)(=O)O)c2cccnc2c1O [Ubistatin A]
  inhibition of the E3 ubiquitylation assay: inhibited
